Experimental data taken from patent US20230144619A1, “SALT OF ARYLAMINOPURINE DERIVATIVE, PREPARATION METHOD THEREFOR AND USE THEREOF” (CSPC Zhongqi Pharmaceutical Technology (Shijiazhuang) Co., …, priority 2020, published 2023).
Values after ≈ are worked out from the molar mass of the structure shown.

Columns and labels:
[1] = Solubility test (UV spectrophotometer, saturated solutions shaken 24 hours); format: physicochemical; conditions: for Solubility, Water medium pH = 1.2 / Solubility, Water medium pH = 4.5 / Solubility, Water medium pH = 6.8 / Solubility, Water medium: 25° C.; for Solubility, Water medium pH = 1.2: pH=1.2 hydrochloric acid solution; for Solubility, Water medium pH = 4.5: pH=4.5 phosphate buffer solution; for Solubility, Water medium pH = 6.8: pH=6.8 phosphate buffer solution; for Solubility, Water medium: water (purified water)
Protocol: Detection instrument: Ultraviolet spectrophotometer/Evolution 300
The following solutions with pH=1.2, pH=4.5, and pH=6.8 and water were used as the solvent, and the solvent preparation process was as follows:
(1) pH=1.2 hydrochloric acid solution: To 7.65 mL of hydrochloric acid was added 1000 mL of water, and the mixture was shaken uniformly to obtain the target solution.
(2) pH=4.5 phosphate buffer solution: 6.8 g of potassium dihydrogen phosphate was taken and diluted with water to 1000 mL, and the mixture was shaken uniformly to obtain the target solution.
(2) pH=6.8 phosphate buffer solution: 6.8 g of potassium dihydrogen phosphate and 0.896 g of sodium hydroxide were taken and diluted with water to 1000 mL, and the mixture was shaken uniformly to obtain the target solution.
(4) Water: purified water
Test tubes with stopper were taken, and 10 mL of dissolution media at various pH values were precisely added to the test tubes respectively, and excessive stock drugs were added until supersaturated solutions were formed. The adding amounts were recorded. The solutions were shaken uniformly, sealed with stoppers, and shaken for 24 hours in a shaker. 2 mL of solutions were taken out at different time points respectively, and centrifuged. The resulting supernatants were taken, filtered, and the subsequent filtrates were taken for later use.
The above-mentioned saturated solutions in different solvents were taken, and solvents were added to dilute the solutions to certain volumes. The absorbances were measured at a wavelength of 287 nm.
Preparation of a solution of the reference substance: an appropriate amount of the compound represented by Formula 1 was taken as the reference substance, and precisely weighed. A solvent was added to dissolve and dilute the reference compound to produce a solution containing about 10 μg of the compound represented by Formula 1 per 1 mL. The absorbance was measured at a wavelength of 287 nm to calculate the solubility.
The salts obtained in Examples 1 and 3-17 and the compound represented by Formula 1 were subjected to the solubility test in media and the test results were shown in the following table: […]

[2] = Accelerated stability test; format: physicochemical
Protocol: Appropriate amounts of the salt samples obtained from Examples 1 and 3-17 were placed at a temperature of 25±2° C. under 0%±5% RH in an open environment for 10 days and at a temperature of 40±2° C. under 75%±5% RH in an open environment for 10 days respectively to perform the accelerated tests, and the results were as follows: […]

Hygroscopicity test = format: physicochemical; conditions: 25±1° C., relative humidity 80%±2% (DVS, 80% RH)
Protocol: Detection instrument: XPE105DR
(1) A dry stoppered glass weighing bottle was taken, placed in a suitable constant-temperature desiccator at 25° C. 1° C. (with a saturated solution of ammonium chloride or ammonium sulfate in the lower part) or an artificial climate box (with the set temperature of 25° C.±1° C. and the relative humidity of 80%±2%) on the day before the test, and precisely weighed and recorded as the weight (m1).
(2) An appropriate amount of the test sample was taken and spread in the above-mentioned weighing bottle. The thickness of the test sample was generally about 1 mm, and the bottle was precisely weighed and recorded as the weight (m2).
(3) The stopper was removed to open the weighing bottle, and the opened weighing bottle and the stopper were placed under the above-mentioned constant temperature and humidity conditions for 24 hours.
(4) The opened weighing bottle was stoppered, precisely weighed, and recorded as the weight (m3).
Percentage increase in mass=(m3−m2)/(m2−m1)×100%
(5) The description of hygroscopicity characteristics and the definition for the weight gain due to hygroscopicity:
Deliquescence: Sufficient water was absorbed to form a liquid.
Very hygroscopic: the weight gain due to hygroscopicity was not less than 15%.
Hygroscopic: the weight gain due to hygroscopicity was less than 15% but not less than 2%.
Slightly hygroscopic: the weight gain due to hygroscopicity was less than 2% but not less than 0.2%.
Not or nearly not hygroscopic: the weight gain due to hygroscopicity was less than 0.2%.
Appropriate amounts of the salt samples obtained from Examples 1 and 3-17 were subjected to the hygroscopicity test at a temperature of 25±1° C. under a relative humidity of 80%±2%, and the results were as follows: […]

DSC and TGA tests = format: physicochemical; conditions: onset temperature
Protocol: 6. Differential Scanning Calorimetry-Thermogravimetric Analysis (DSC-TGA)
Detection instrument: NETZSCH STA 449F3
Temperature range: 20° C.-350° C.;
Heating rate: 10.0 (K/min);
7. Differential Scanning Calorimetry (DSC)
Detection instrument: NETZSCH DSC 214 Polyma
Temperature range: 20° C.-250° C.;
Heating rate: 5.0 (K/min);
8. Thermogravimetric Analysis (TGA)
Detection instrument: METTLER and SDT Q600
The salts obtained in Examples 1 and 3-17 and the compound represented by Formula 1 were subjected to the DSC and TGA tests in media, and the test results were shown in the following table: […]

[3] = test system: MV4-11 (FLT3-ITD mutation) subcutaneous tumor model; conditions: human leukemia MV4-11 transplantation tumors in nude mice, background statement; cited from earlier work
[4] = test system: human non-small cell lung cancer HCC827; conditions: lung cancer HCC827 transplantation tumors in nude mice, background statement; cited from earlier work
[5] = test system: K562 (BCR-Abl gene rearrangement) subcutaneous tumor model; conditions: human leukemia K562 transplantation tumors in nude mice, background statement; cited from earlier work
[6] = test system: lung cancer (PC-9) transplantation tumors; conditions: lung cancer PC-9 transplantation tumors in nude mice, background statement; cited from earlier work
leukemia = conditions: background statement; cited from earlier work
lung cancer = conditions: background statement; cited from earlier work
[7] = Placed at 25 ± 2° C. under 0% ± 5% RH in an open environment for 10 days
[8] = Placed at 40 ± 2° C. under 75% ± 5% RH in an open environment for 10 days

In the case of `CC(C)n1c(Nc2cccnc2)nc2cnc(Nc3ccc(N4CCN(C)CC4)cc3)nc21` [Example 7], the “Solubility, Water medium pH = 1.2” value [1] is reported as 43.07 mg/mL, the “Solubility, Water medium pH = 4.5” value [1] is reported as 6.51 mg/mL and the “Solubility, Water medium pH = 6.8” value [1] is reported as 12.24 mg/mL. For the same molecule, the “Solubility, Water medium” value [1] was 6910 µg/mL (≈ 15.6 mM), the Appearance [2, 7] was “Yellow solid” and the Appearance [2, 8] was “Yellow solid”. For the same molecule, the Hygroscopicity (Hygroscopicity test) was “Slightly hygroscopic (the weight gain due to hygroscopicity was less than 2% but not less than 0.2%.)”, the “Weight gain due to hygroscopicity” value (Hygroscopicity test) was 1.19% and the “TGA: starting to lose the acid” value (DSC and TGA tests) was ~180 °C (see FIG. 27). The “TGA: starting to lose the water of crystallization” value (“TGA: starting to lose the water” below) (DSC and TGA tests) was “crystallization at about 40° C.;”.

In the case of `CC(C)n1c(Nc2cccnc2)nc2cnc(Nc3ccc(N4CCN(C)CC4)cc3)nc21` [Example 10], the “Solubility, Water medium pH = 1.2” value [1] is reported as 66.52 mg/mL, the “Solubility, Water medium pH = 4.5” value [1] is reported as 13.98 mg/mL and the “Solubility, Water medium pH = 6.8” value [1] is reported as 6.36 mg/mL. The “Solubility, Water medium” value [1] was 2490 µg/mL (≈ 5.61 mM), the Appearance [2, 7] was “Yellow solid” and the Appearance [2, 8] was “Yellow solid”. The Hygroscopicity (Hygroscopicity test) was “Slightly hygroscopic (the weight gain due to hygroscopicity was less than 2% but not less than 0.2%.)”, the “Weight gain due to hygroscopicity” value (Hygroscopicity test) was 0.54% and the “TGA: starting to lose the acid” value (DSC and TGA tests) was ~170 °C (see FIG. 30). The “TGA: starting to lose the water” value (DSC and TGA tests) was “crystallization at about 40° C.;”.

For `CC(C)n1c(Nc2cccnc2)nc2cnc(Nc3ccc(N4CCN(C)CC4)cc3)nc21` [Example 11], the “Solubility, Water medium pH = 1.2” value [1] was 87.38 mg/mL, the “Solubility, Water medium pH = 4.5” value [1] was 16.13 mg/mL and the “Solubility, Water medium pH = 6.8” value [1] was 8.61 mg/mL. For the same molecule, the “Solubility, Water medium” value [1] was 27780 µg/mL (≈ 62.6 mM), the Appearance [2, 7] was “Yellow solid” and the Appearance [2, 8] was “Yellow solid”. For the same molecule, the Hygroscopicity (Hygroscopicity test) was “Slightly hygroscopic (the weight gain due to hygroscopicity was less than 2% but not less than 0.2%.)”, the “Weight gain due to hygroscopicity” value (Hygroscopicity test) was 0.68% and the “TGA: starting to lose the acid” value (DSC and TGA tests) was ~220 °C (see FIG. 31). For the same molecule, the “TGA: starting to lose the water” value (DSC and TGA tests) was “crystallization at about 40° C.;”.

With `CC(C)n1c(Nc2cccnc2)nc2cnc(Nc3ccc(N4CCN(C)CC4)cc3)nc21` [Example 14] the “Solubility, Water medium pH = 1.2” value [1] was 41.47 mg/mL, the “Solubility, Water medium pH = 4.5” value [1] was 0.72 mg/mL and the “Solubility, Water medium pH = 6.8” value [1] was 0.03 mg/mL. For the same molecule, the “Solubility, Water medium” value [1] was 40 µg/mL (≈ 0.0902 mM), the Appearance [2, 7] was “Off-white solid” and the Appearance [2, 8] was “Off-white solid”. For the same molecule, the Hygroscopicity (Hygroscopicity test) was “Slightly hygroscopic (the weight gain due to hygroscopicity was less than 2% but not less than 0.2%.)”, the “Weight gain due to hygroscopicity” value (Hygroscopicity test) was 1.59% and the “TGA: starting to lose the acid” value (DSC and TGA tests) was ~80 °C (see FIG. 37). For the same molecule, the “TGA: starting to lose the water” value (DSC and TGA tests) was “crystallization at about 40° C.;”.

With `CC(C)n1c(Nc2cccnc2)nc2cnc(Nc3ccc(N4CCN(C)CC4)cc3)nc21` [Example 15] the “Solubility, Water medium pH = 1.2” value [1] was 96.58 mg/mL, the “Solubility, Water medium pH = 4.5” value [1] was 45.67 mg/mL and the “Solubility, Water medium pH = 6.8” value [1] was 27.84 mg/mL. The “Solubility, Water medium” value [1] was 63570 µg/mL (≈ 143 mM), the Appearance [2, 7] was “Off-white solid” and the Appearance [2, 8] was “Off-white solid”. The Hygroscopicity (Hygroscopicity test) was “Hygroscopic (the weight gain due to hygroscopicity was less than 15% but not less than 2%.)”, the “Weight gain due to hygroscopicity” value (Hygroscopicity test) was 2.59% and the “TGA: starting to lose the acid” value (DSC and TGA tests) was ~80 °C (see FIG. 39). The “TGA: starting to lose the water” value (DSC and TGA tests) was “crystallization at about 40° C.;”.

In the case of `CC(C)n1c(Nc2cccnc2)nc2cnc(Nc3ccc(N4CCN(C)CC4)cc3)nc21` [The compound represented by Formula 1, 9-isopropyl-2-(4-(4-methylpiperazin-1-yl)anilino)-8-(pyridine-3-amino)-9H-purine], the “Solubility, Water medium pH = 1.2” value [1] is reported as 12.60 mg/mL, the “Solubility, Water medium pH = 4.5” value [1] is reported as 0.57 mg/mL and the “Solubility, Water medium pH = 6.8” value [1] is reported as 0.04 mg/mL. For the same molecule, the “Solubility, Water medium” value [1] was 50 µg/mL, the “solubility in water (in words)” value ([1]; water) was “insoluble in water” and the Hygroscopicity (Hygroscopicity test) was “Slightly hygroscopic (the weight gain due to hygroscopicity was less than 2% but not less than 0.2%.)”. For the same molecule, the “Weight gain due to hygroscopicity” value (Hygroscopicity test) was 0.45%, the “TGA: starting to decompose” value (DSC and TGA tests) was ~155 °C (see FIG. 42) and the “efficacy on transplantation tumors” value [3] was “remarkable efficacy”. The “efficacy on transplantation tumors” value [4] was “remarkable efficacy”, the “efficacy on transplantation tumors” value [5] was “remarkable efficacy” and the “efficacy on transplantation tumors” value [6] was “remarkable efficacy”. For the same molecule, the “anti-leukemia activity compared with Sunitinib” value (leukemia) was “better than that of Sunitinib” and the “anti-lung cancer activity compared with Gefitinib” value (lung cancer) was “comparable to that of Gefitinib”.
